# According to US12564575B2 (priority 2019, dated 2026):
# Entries after “also recorded” stand apart in the source; their conditions may differ.
# Experiments:
# [1] = test system: LPS/OA-induced lung injury and ARDS; format: in vivo, C57BL/6 mice
# LPS/OA induced ARDS = test system: LPS/OA induced ARDS; parameters: species or system C57BL/6 mice; conditions: mouse, in vivo, po, 10 mg/kg
# [2] = test system: vero epithelial cells (CCL-81); assay: ECIS study of vero epithelial cells exposed to snake venom; format: cell-based, African green monkey; conditions: for cellular function and cell-cell junction integrity measured by resistance: C. scutulatus whole venom (high sPLA2 content)
# [3] = test system: venom MP (Sistrurus venom metalloprotease activity); format: biochemical, Viper, elapid and colubrid venom; conditions: FIG. 4, Table 2; comparison of hydroxamate metalloprotease inhibitors
# Streptococcus suis = assay: Juvenile pig with Streptococcus suis infection during experimental envenoming study; format: in vivo, Sus domesticus; conditions: S. suis infected juvenile pig; LY315920 plus single non-curative antibiotic dose; euthanized as scheduled
Compound,"clinical appearance of treated animals ([1]; […], 24 and 48 hours, versus lethargic, tachypneic controls)","lung sound amplitude, distance from maximum (audiogram) ([1]; […], recordings at 24 hours, control −29.7 db) [db]","difference in lung sound amplitude between treated and untreated mice ([1]; […], treated quieter) [dB]","alveolar damage (ATS workshop lung injury score) ([1]; mouse, in vivo)",damage from LPS/OA induced ARDS (histopathology) (LPS/OA induced ARDS),cellular function and cell-cell junction integrity measured by resistance [2],"potency (IC50) against venom metalloprotease activity, in words [3]",difference in response between the two varespladib doses ([2]; 0.05 mg/ml versus 0.01 mg/mL),"inter-cellular attachments (resistance) and cell viability (capacitance) ([2]; C. scutulatus and Daboia russelli (Pakistan) venoms, varespladib 0.05 mg/ml and 0.01 mg/mL)",survival (Streptococcus suis) [h]
"C[C@H](Cc1cccc(-c2cc(Cc3ccccc3)ccc2C(N)=O)c1)C(=O)O [AZD2716, (R)-3-(5′-benzyl-2′-carbamoyl-[1,1′-biphenyl]-3-yl)-2-methylpropanoic acid]","bright, alert and responsive",−38.5,~10,prevented and rescued; also recorded: protects and reduces alveolar damage,rescue and reduce damage,preserves cellular function and cell-cell junction integrity,–,–,–,–
CNC(=O)[C@@H](NC(=O)[C@H](CC(C)C)[C@H](O)C(=O)NO)C(C)(C)C [marimastat],–,–,–,–,–,–,good to excellent performance,–,–,–
CCc1c(C(=O)C(N)=O)c2c(OCC(=O)O)cccc2n1Cc1ccccc1 [varespladib],–,–,–,–,–,preserves cellular function and cell-cell junction integrity,–,no significant difference,recovers and stabilizes inter-cellular attachments (resistance) and cell viability (capacitance),> 100
